Values quoted from earlier work in patent US20240277767A1, “METHODS AND USES” (PROLEUKOCYTE AB, priority 2021, published 2024).

Biological target: T1, Nrf2 (Homo sapiens, UniProt Q16236)
T1 sequence (Q16236 1-605): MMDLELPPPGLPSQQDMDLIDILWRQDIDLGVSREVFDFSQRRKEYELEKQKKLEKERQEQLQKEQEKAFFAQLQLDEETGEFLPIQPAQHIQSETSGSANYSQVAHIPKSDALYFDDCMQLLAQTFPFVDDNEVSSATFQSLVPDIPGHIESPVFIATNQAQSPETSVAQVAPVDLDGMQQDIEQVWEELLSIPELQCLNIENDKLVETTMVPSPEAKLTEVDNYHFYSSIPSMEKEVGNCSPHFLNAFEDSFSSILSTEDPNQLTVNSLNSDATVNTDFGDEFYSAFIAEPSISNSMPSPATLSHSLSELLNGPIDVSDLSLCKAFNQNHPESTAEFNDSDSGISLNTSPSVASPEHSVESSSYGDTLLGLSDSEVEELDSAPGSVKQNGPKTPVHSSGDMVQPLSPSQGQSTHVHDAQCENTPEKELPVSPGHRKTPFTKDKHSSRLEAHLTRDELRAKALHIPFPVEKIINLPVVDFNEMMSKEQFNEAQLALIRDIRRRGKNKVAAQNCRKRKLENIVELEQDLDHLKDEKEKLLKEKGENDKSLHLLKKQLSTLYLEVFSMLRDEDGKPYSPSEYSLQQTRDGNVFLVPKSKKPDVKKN
Settings: presumably via inhibition of TrxR (Saei et al., 2020); cited from earlier work

Structure (SMILES): CC(=O)OC[C@H]1O[C@@H]([S-])[C@H](OC(C)=O)[C@@H](OC(C)=O)[C@@H]1OC(C)=O.CCP(CC)CC.[Au+] [AUF, Auranofin]
- Activation of Nrf2: strong activator of Nfr2
